# Legend:
# T47D cells = experiment: [3H]thymidine incorporation in T47D cells; assay type: cell-based, human; conditions: 200 nM, serum 24 hours
# Method: Cell Culture and DNA Synthesis: T47D (ductal carcinoma) and MCF7 (adenocarcinoma) human breast cancer cell lines were obtained from the American Type Culture Collection. All cell lines were maintained according to vendors' recommendations. The cells were growth arrested by placing them in serum-free quiescence media and exposed to 10% serum-containing media as indicated. [^3H]Thymidine incorporation was assessed as described previously (Weiss, R. H., and Nuccitelli, R., J. Biol. Chem., 267: 5608-5613, 1992).
# Apoptotic cells will not incorporate thymidine into DNA during S phase, but [^3H]thymidine incorporation experiments will not distinguish between G1→S arrest and apoptosis. Serum-starved cells were transfected with 200 nM antisense p21 and control ODN, stimulated with serum-containing media, and examined for their ability to incorporate [^3H]thymidine into DNA. […] Antisense p21 attenuates [^3H]thymidine incorporation. MCF7 and T47D cells were grown to confluence, serum starved for 24 hours, and lipofected with antisense p21 (AS) or control (SC) ODN at the concentrations indicated (in nM). […] Serum was added for 24 hours, and the cells were incubated with [^3H]thymidine for the last 6 hours. DNA synthesis was assessed by [^3H]thymidine incorporation and is expressed as mean +SD of 3 wells/data point. *, P <0.05 compared with antisense p21 ODN transfection. […]
# MCF7 cells = experiment: Nuclear morphology (Hoechst 33258) in MCF7 cells; assay type: cell-based, human; conditions: serum stimulated 24 hours after lipofection
# Method: Evaluation of Nuclear Morphology: Cells were seeded in 6-well culture dishes and treated with ODNs as described. The cells were then immersed in methanol for at least 10 min. Cells were stained in 1 μg/ml Hoechst 33258 in water with 1% nonfat dry milk. After staining for 8-10 min, the cells were rinsed in water and dried completely. Nuclear morphology was visually evaluated by fluorescence microscopy.
# Apoptosis is the end result of an elaborate cascade of molecular events that ultimately result in programmed cell death; thus, a variety of tests are generally used to determine whether apoptosis is occurring. The methods to study apoptosis were employed: (a) assessment of nuclear morphology; (b) PARP cleavage; and (c) caspase-3 cleavage. Serum-starved cells were transfected with antisense p21 ODN or the control ODN, fixed, stained with Hoechst 33258, and examined under UV light. MCF7 and T47D cells were grown to confluence, serum starved for 24 hours, and lipofected with antisense p21 or control ODN. The cells were subsequently serum stimulated for another 24 hours, fixed, stained with Hoechst 33258, and examined under UV light at X400.
# Met-1 cells [1] = experiment: Growth of Met-1 cells in culture; assay type: cell-based, mouse; conditions: transfection
# cyclinE/cdk2 = experiment: Cyclin E immunoprecipitation / cdk2 immunoblot in A431 cells; assay type: cell-based, human; conditions: 10 min to 6 hours of PDGF exposure
# From the text: Cyclin/cdk interactions occur after growth factor stimulation and serve to integrate such responses with the CKIs and transmit them to the Rb/E2F systems, which leads to mitogenic signal transmission. The cyclin D1/cdk 4 interaction occurs early after growth factor stimulation (reviewed in (Arellano and Moreno, 1997 Int. J. Biochem. Cell Biol., 29, p. 559-573)), while the cyclinE/cdk2 interaction occurs late in G1 and is thought to have a role in triggering the actual onset of DNA replication after the cells have passed the restriction point (reviewed in (Sherr and Roberts, 1995: Genes Dev., 9, p. 1149-1163)). A431 cells were transfected with p21^Waf1/Cip1 antisense (SEQ. ID NO.:1) or sense (SEQ. ID NO.:2) oligodeoxynucleotide, allowed to grow overnight in serum-free media, and then stimulated for various times with PDGF-BB. The cells were subsequently immunoprecipitated with either cyclinD1 or cyclinE and immunoblotted with cdk4 or cdk2, respectively. A lysate sample, showing the mobility of the immunoprecipitated cdks, confirmed the identity of the cdks. A431 cells were transfected with antisense (SEQ. ID NO.:1) or sense p21^Waf1/Cip1 (SEQ. ID NO.:2) oligonucleotides. […]
# bovine VSM cells = experiment: PDGF-BB-stimulated DNA synthesis in bovine VSM cells; assay type: cell-based; conditions: bovine VSM cell line, various concentrations
# From the text: Cell culture, DNA synthesis, and proliferation assays: Cultures of both A10 and A7r5 rat aortic VSM cells were obtained from American Type Culture Collection (Rockville Md.). Bovine aortic smooth muscle cells were supplied by Martha O'Donnell (O'Donnell and Owen, 1986 Proc Natl. Acad. Sci.US.A., 83, p. 6132-6136). All of the cell lines were maintained as described (Weiss et al., 1998 Am. J. Physiol., 274, p. C1521-C1529) and were used between passages 15 and 25. The cells were growth-arrested by placing them in serum-free quiescence medium, exposed to growth factors as indicated, and [^3H]thymidine incorporation assessed as previously described (Weiss and Nuccitelli, 1992a J. Biol. Chem., 267, p. 5608-5613). Cell proliferation was assessed by counting of adherent cells on 4 representative fields under 100× magnification in each of 3 wells per experimental condition.
# Antisense techniques were employed to examine the dependence of G1-phase progression on p21^Waf1/Cip1 in the VSM cell lines (Crooke, 1993 Antisense research and applications. Boca Raton, CRC.). […] DNA synthesis was assessed by [^3H]-thymidine incorporation and is expressed as mean ± s.e.m. of three wells per data point. […] After 18 hours of PDGF incubation, the cells were counted by examining representative fields at 100× magnification. The average number of cells in 4 random fields in each well was determined.
# Met-1 cells [2] = conditions: Weiss et al., Cancer Lett. 2003; cited from earlier work
Substance,[3H]thymidine incorporation (DNA incorporation) (T47D cells),nuclear morphology (MCF7 cells),growth of Met-1 cells in culture (Met-1 cells [1]),cyclinE/cdk2 association (cyclinE/cdk2),PDGF-stimulated DNA synthesis (bovine VSM cells),growth of tumors in a mouse model of breast cancer (Met-1 cells [2])
"5′-ATC-CCC-AGC-CGG-TTC-TGA-CAT-3′ (antisense ATCCCCAGCCGGTTCTGACAT; listed as DNA, chemistry not fully specified) [antisense p21 ODN]",significant attenuation,nuclear morphological changes consistent with apoptosis,,,,
5′-GACATCACCAGGATCGGACAT-3′,,,did not affect growth,no effect,a similar effect,attenuates growth of tumors
